# Reference: patent US10758609B2, “Cross-reactive T-cell epitopes of HIV, SIV, and FIV for vaccines in humans and cats” (priority 2015, dated 2020)
# “Also recorded” adds a separate entry of the source.
# Legend:
# [1] = tested on: CD8^+ T cells from HIV^+ subjects; assay: FACS-based intracellular staining (ICS) for cytolysin (perforin) and cytotoxins (GrzA, GrzB) in CD8+ T cells; settings: HIV+ human subjects; for Cyto: CD8+ T-cell cytotoxins (perforin, GrzA & B), frequency of responders: FIV epitope peptide; for Cyto (cytolysin/cytotoxin production), frequency of responders: FIV peptides
# Outline: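 Peptides tested with PBMC and T cells from HIV^+ subjects, some on ART. CFSE proliferation positive at ≥2% CFSE^low CD4^+ or CD8^+ T cells; intracellular perforin, granzyme A and B staining by FACS positive at ≥0.2%.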
# FIVFC1 = assay: FIV enhancement and suppression (E/S) analysis of in vitro FIV infection of feline PBMC; format: cell-based, feline immunodeficiency virus; settings: for Direct effect on in vitro FIV infection (enhancement/suppression): 7 μg/mL peptide or MAP, PBMC of uninfected SPF cats, versus virus control; for FIV Test E/S (enhancer/suppressor analysis): FIV peptides, in vitro FIV infection of uninfected cat PBMC
# Method: FIV viral enhancement or suppression was determined using a 48-well modification of the method described for detecting FIV enhancing activity of IFNγ and FIV suppressive activity of IFNα [37]. […] MAP1c contained four branched chains of peptide Fp4-3. T-cell mitogen concanavalin A (ConA) at 4 μg/mL was used as an infection enhancing control. Six hours after the culturing with peptide, MAP, or ConA, varying dilutions of FIVFC1 were added to the wells. Seventy-two hours later the cells were re-cultured in fresh culture media with ConA-stimulated autologous PBMC (0.25-0.5×10^6) using the same amount of corresponding peptide, MAP, ConA or media. On Day 7, 10, and 13 of culture, 0.5 mL of culture fluid was collected and 0.5 mL of fresh media added to maintain a consistent volume. The harvested culture samples were analyzed for FIV titer using the previously described RT assay. The results are shown as the end-point dilution titer from two studies using PBMC from different SPF donors.
# Statistical analysis. The statistically significant differences between the end-point dilution titers of the peptide or MAP culture samples and either the virus control samples or specific MAP culture samples were calculated using a paired Student t-test with a two-tailed distribution (SigmaPlot version 11.0). Statistical comparisons between pre and post-vaccination(s) were similarly performed. The comparison was considered statistically significant when p<0.05.
# PBMC from cat SBA = format: cell-based; settings: PBMC of cat SBA, 14 wk post-challenge boost
Sequence,"Cyto: CD8+ T-cell cytotoxins (perforin, GrzA & B), frequency of responders [1]","Cyto (cytolysin/cytotoxin production), frequency of responders [1]",Direct effect on in vitro FIV infection (enhancement/suppression) (FIVFC1),FIV Test E/S (enhancer/suppressor analysis) (FIVFC1),Direct effect on in vitro FIV infection (enhancement/suppression) (FIVFC1; listed as Fp4-3 real),GrzA mRNA (PBMC from cat SBA),GrzB mRNA (PBMC from cat SBA),IFNγ mRNA (PBMC from cat SBA),IL2 mRNA (PBMC from cat SBA),perforin mRNA (PBMC from cat SBA)
KKKSGKWRMLIDFRV [FRT3-3],++++ (>54% (++++)),++++ (>54% (++++)),significant enhancement; also recorded: enhanced in vitro FIV infection; also recorded: enhance/,↑,,,,,,
PTDMATLIMAAPGCA [Fp4-3],,,significantly enhanced FIV infection,↑,enhancing,low,no detectable levels,high,low,no detectable levels
WRMLIDFRVLNKL [FRT3-4],++++ (>54% (++++)),++++ (>54% (++++)),significantly suppressed FIV infection; also recorded: suppress,↓,,,,,,
